Measurements as given in the NIST ThermoML archive (doi:10.1021/je8006138).

Legend:
[1] = 101 kPa, Liquid; for viscosity: Capillary tube (Ostwald / Ubbelohde) method; for mass density: Pycnometric method
[2] = xn = mol fraction of the nth substance listed; details: 101 kPa, Liquid; for viscosity: Capillary tube (Ostwald / Ubbelohde) method; for mass density: Pycnometric method

C1CCCCC1 [cyclohexane]
[1]
Details | mass density [kg/m3] | viscosity [mPa·s]
293.15 K | 778.6 | 0.984
298.15 K | 773.9 | 0.903
303.15 K | 769.2 | 0.83

C1CCCCC1 [cyclohexane] + CCCCC(CC)COP(=O)(OCC(CC)CCCC)OCC(CC)CCCC
[2], x2 = 0
Details | mass density [kg/m3] | viscosity [mPa·s]
293.15 K | 778.6 | 0.984
298.15 K | 773.9 | 0.903
303.15 K | 769.2 | 0.83

CCCCCC [hexane]
[1]
Details | mass density [kg/m3] | viscosity [mPa·s]
293.15 K | 659.9 | 0.319
298.15 K | 655.3 | 0.304
303.15 K | 650.8 | 0.29

CCCCCC [hexane] + CCCCC(CC)COP(=O)(OCC(CC)CCCC)OCC(CC)CCCC
[2], x2 = 0
Details | mass density [kg/m3] | viscosity [mPa·s]
293.15 K | 659.9 | 0.319
298.15 K | 655.3 | 0.304
303.15 K | 650.8 | 0.29

CCCCC(CC)COP(=O)(OCC(CC)CCCC)OCC(CC)CCCC (stereo not given) [tris(2-ethylhexyl) phosphate]
[1]
Details | mass density [kg/m3] | viscosity [mPa·s]
293.15 K | 923.8 | 14.09
298.15 K | 920.1 | 11.62
303.15 K | 916.4 | 9.708

CCCCC(CC)COP(=O)(OCC(CC)CCCC)OCC(CC)CCCC (stereo not given) [tris(2-ethylhexyl) phosphate] + C1CCCCC1
[2]
Details | mass density, 293.15 K [kg/m3] | mass density, 298.15 K [kg/m3] | mass density, 303.15 K [kg/m3] | viscosity, 293.15 K [mPa·s] | viscosity, 298.15 K [mPa·s] | viscosity, 303.15 K [mPa·s]
x1 = 0.0997 | 823.7 | 819.4 | 815.1 | 1.709 | 1.544 | 1.404
x1 = 0.1995 | 852.5 | 848.3 | 844.2 | 2.71 | 2.423 | 2.176
x1 = 0.2978 | 871.1 | 867.1 | 863.1 | 3.894 | 3.415 | 3.025
x1 = 0.4007 | 885.8 | 881.8 | 877.9 | 5.246 | 4.532 | 3.948
x1 = 0.4965 | 895.8 | 892 | 888 | 6.629 | 5.665 | 4.896
x1 = 0.582 | 902.8 | 899 | 895.1 | 7.908 | 6.682 | 5.732
x1 = 0.6955 | 910.4 | 906.6 | 902.8 | 9.64 | 8.09 | 6.862
x1 = 0.7732 | 914.6 | 910.8 | 907 | 10.8 | 9.002 | 7.619
x1 = 0.8997 | 920.2 | 916.5 | 912.6 | 12.64 | 10.5 | 8.806
x1 = 1 | 923.8 | 920.1 | 916.4 | 14.09 | 11.62 | 9.708

CCCCC(CC)COP(=O)(OCC(CC)CCCC)OCC(CC)CCCC (stereo not given) [tris(2-ethylhexyl) phosphate] + CCCCCC
[2]
Details | mass density, 293.15 K [kg/m3] | mass density, 298.15 K [kg/m3] | mass density, 303.15 K [kg/m3] | viscosity, 293.15 K [mPa·s] | viscosity, 298.15 K [mPa·s] | viscosity, 303.15 K [mPa·s]
x1 = 0.1027 | 739.4 | 735.2 | 730.9 | 0.638 | 0.594 | 0.56
x1 = 0.1999 | 789.2 | 785 | 780.9 | 1.103 | 1.019 | 0.948
x1 = 0.2976 | 823.2 | 819 | 815 | 1.754 | 1.608 | 1.475
x1 = 0.4047 | 851.5 | 847.5 | 843.5 | 2.753 | 2.485 | 2.246
x1 = 0.5005 | 869.7 | 865.8 | 861.9 | 3.881 | 3.438 | 3.053
x1 = 0.5889 | 883.6 | 879.6 | 875.8 | 5.1 | 4.479 | 3.923
x1 = 0.7133 | 898.9 | 895.3 | 891.4 | 7.34 | 6.247 | 5.405
x1 = 0.8032 | 908.3 | 904.5 | 900.8 | 9.121 | 7.73 | 6.583
x1 = 0.8907 | 916.3 | 912.6 | 908.9 | 11.18 | 9.353 | 7.935
x1 = 1 | 923.8 | 920.1 | 916.4 | 14.09 | 11.62 | 9.708
